# Measurements reported in PubChem BioAssay (NCI).
#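 Interpolation was linear, between the two tested concentrations surrounding the appropriate level; five concentrations were tested over 48 hours in 96-well plates. Here, GI50 denotes the concentration required for 50% inhibition of growth. TGI marks complete inhibition of growth.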
# Columns and labels:
# Assay in all cases: inhibition of tumour cell growth, NCI panel, 48 h
# A549 NSCLC = system: A549 NSCLC
# SK-MEL-28 melanoma = system: SK-MEL-28 melanoma
# KM12 colon = system: KM12 colon
# RPMI-8226 leukemia = system: RPMI-8226 leukemia
# HS 578T breast = system: HS 578T breast
# MALME-3M melanoma = system: MALME-3M melanoma
# HCC-2998 colon = system: HCC-2998 colon
# NCI/ADR-RES ovarian = system: NCI/ADR-RES ovarian
# DU-145 prostate = system: DU-145 prostate
# T-47D breast = system: T-47D breast
# MCF7 breast = system: MCF7 breast
# UACC-62 melanoma = system: UACC-62 melanoma
# 786-0 renal = system: 786-0 renal
# NCI-H226 lung = system: NCI-H226 lung
# K-562 leukemia = system: K-562 leukemia
# SNB-19 CNS = system: SNB-19 CNS
# CAKI-1 renal = system: CAKI-1 renal
# NCI-H23 lung = system: NCI-H23 lung
# HCT-116 colon = system: HCT-116 colon
# MDA-MB-231 breast = system: MDA-MB-231 breast
# SK-MEL-2 melanoma = system: SK-MEL-2 melanoma
# A498 renal = system: A498 renal
# SW-620 colon = system: SW-620 colon
# SK-OV-3 ovarian = system: SK-OV-3 ovarian
# UO-31 renal = system: UO-31 renal
# BT-549 breast = system: BT-549 breast
# OVCAR-8 ovarian = system: OVCAR-8 ovarian
# RXF 393 renal = system: RXF 393 renal
# NCI-H460 lung = system: NCI-H460 lung
# TK-10 renal = system: TK-10 renal
# OVCAR-3 ovarian = system: OVCAR-3 ovarian
# U251 CNS = system: U251 CNS
# SK-MEL-5 melanoma = system: SK-MEL-5 melanoma
# OVCAR-4 ovarian = system: OVCAR-4 ovarian
# OVCAR-5 ovarian = system: OVCAR-5 ovarian
# UACC-257 melanoma = system: UACC-257 melanoma
# ACHN renal = system: ACHN renal
# COLO 205 colon = system: COLO 205 colon
# HT29 colon = system: HT29 colon
# SR leukemia = system: SR leukemia
# SF-268 CNS = system: SF-268 CNS
# HOP-62 NSCLC = system: HOP-62 NSCLC
# M14 melanoma = system: M14 melanoma
# MDA-MB-435 = system: MDA-MB-435
# HCT-15 colon = system: HCT-15 colon
# SF-295 CNS = system: SF-295 CNS
# SF-539 CNS = system: SF-539 CNS
# SN12C renal = system: SN12C renal
# NCI-H522 lung = system: NCI-H522 lung
# LOX IMVI melanoma = system: LOX IMVI melanoma
# CCRF-CEM leukemia = system: CCRF-CEM leukemia
# PC-3 prostate = system: PC-3 prostate
# SNB-75 CNS = system: SNB-75 CNS
# IGROV1 ovarian = system: IGROV1 ovarian
# MOLT-4 leukemia = system: MOLT-4 leukemia
# HL-60(TB) leukemia = system: HL-60(TB) leukemia
compound,measurement,setting,value
CC(C)=CC(=O)OC1C(CO)OC(Oc2cc(O)c3c(=O)cc(-c4ccc(O)c(O)c4)oc3c2)C(OC2OC(C)C(O)C(O)C2O)C1O (configuration not stated),GI50,A549 NSCLC,> 100 µM
same,TGI,A549 NSCLC,> 100 µM
same,GI50,SK-MEL-28 melanoma,> 100 µM
same,TGI,SK-MEL-28 melanoma,> 100 µM
same,GI50,KM12 colon,> 100 µM
same,TGI,KM12 colon,> 100 µM
same,GI50,RPMI-8226 leukemia,85.6 µM
same,TGI,RPMI-8226 leukemia,> 100 µM
same,GI50,HS 578T breast,> 100 µM
same,TGI,HS 578T breast,> 100 µM
same,GI50,MALME-3M melanoma,> 100 µM
same,TGI,MALME-3M melanoma,> 100 µM
same,GI50,HCC-2998 colon,> 100 µM
same,TGI,HCC-2998 colon,> 100 µM
same,GI50,NCI/ADR-RES ovarian,> 100 µM
same,TGI,NCI/ADR-RES ovarian,> 100 µM
same,GI50,DU-145 prostate,> 100 µM
same,TGI,DU-145 prostate,> 100 µM
same,GI50,T-47D breast,> 100 µM
same,TGI,T-47D breast,> 100 µM
same,GI50,MCF7 breast,> 100 µM
same,TGI,MCF7 breast,> 100 µM
same,GI50,UACC-62 melanoma,> 100 µM
same,TGI,UACC-62 melanoma,> 100 µM
same,GI50,786-0 renal,> 100 µM
same,TGI,786-0 renal,> 100 µM
same,GI50,NCI-H226 lung,> 100 µM
same,TGI,NCI-H226 lung,> 100 µM
same,GI50,K-562 leukemia,> 100 µM
same,TGI,K-562 leukemia,> 100 µM
same,GI50,SNB-19 CNS,> 100 µM
same,TGI,SNB-19 CNS,> 100 µM
same,GI50,CAKI-1 renal,> 100 µM
same,TGI,CAKI-1 renal,> 100 µM
same,GI50,NCI-H23 lung,> 100 µM
same,TGI,NCI-H23 lung,> 100 µM
same,GI50,HCT-116 colon,> 100 µM
same,TGI,HCT-116 colon,> 100 µM
same,GI50,MDA-MB-231 breast,> 100 µM
same,TGI,MDA-MB-231 breast,> 100 µM
same,GI50,SK-MEL-2 melanoma,> 100 µM
same,TGI,SK-MEL-2 melanoma,> 100 µM
same,GI50,A498 renal,> 100 µM
same,TGI,A498 renal,> 100 µM
same,GI50,SW-620 colon,> 100 µM
same,TGI,SW-620 colon,> 100 µM
same,GI50,SK-OV-3 ovarian,> 100 µM
same,TGI,SK-OV-3 ovarian,> 100 µM
same,GI50,UO-31 renal,> 100 µM
same,TGI,UO-31 renal,> 100 µM
same,GI50,BT-549 breast,> 100 µM
same,TGI,BT-549 breast,> 100 µM
same,GI50,OVCAR-8 ovarian,> 100 µM
same,TGI,OVCAR-8 ovarian,> 100 µM
same,GI50,RXF 393 renal,> 100 µM
same,TGI,RXF 393 renal,> 100 µM
same,GI50,NCI-H460 lung,> 100 µM
same,TGI,NCI-H460 lung,> 100 µM
same,GI50,TK-10 renal,> 100 µM
same,TGI,TK-10 renal,> 100 µM
same,GI50,OVCAR-3 ovarian,> 100 µM
same,TGI,OVCAR-3 ovarian,> 100 µM
same,GI50,U251 CNS,> 100 µM
same,TGI,U251 CNS,> 100 µM
same,GI50,SK-MEL-5 melanoma,> 100 µM
same,TGI,SK-MEL-5 melanoma,> 100 µM
same,GI50,OVCAR-4 ovarian,> 100 µM
same,TGI,OVCAR-4 ovarian,> 100 µM
same,GI50,OVCAR-5 ovarian,> 100 µM
same,TGI,OVCAR-5 ovarian,> 100 µM
same,GI50,UACC-257 melanoma,> 100 µM
same,TGI,UACC-257 melanoma,> 100 µM
same,GI50,ACHN renal,> 100 µM
same,TGI,ACHN renal,> 100 µM
same,GI50,COLO 205 colon,> 100 µM
same,TGI,COLO 205 colon,> 100 µM
same,GI50,HT29 colon,> 100 µM
same,TGI,HT29 colon,> 100 µM
same,GI50,SR leukemia,50 µM
same,TGI,SR leukemia,98.8 µM
same,GI50,SF-268 CNS,> 100 µM
same,TGI,SF-268 CNS,> 100 µM
same,GI50,HOP-62 NSCLC,> 100 µM
same,TGI,HOP-62 NSCLC,> 100 µM
same,GI50,M14 melanoma,> 100 µM
same,TGI,M14 melanoma,> 100 µM
same,GI50,MDA-MB-435,> 100 µM
same,TGI,MDA-MB-435,> 100 µM
same,GI50,HCT-15 colon,> 100 µM
same,TGI,HCT-15 colon,> 100 µM
same,GI50,SF-295 CNS,> 100 µM
same,TGI,SF-295 CNS,> 100 µM
same,GI50,SF-539 CNS,> 100 µM
same,TGI,SF-539 CNS,> 100 µM
same,GI50,SN12C renal,> 100 µM
same,TGI,SN12C renal,> 100 µM
same,GI50,NCI-H522 lung,> 100 µM
same,TGI,NCI-H522 lung,> 100 µM
same,GI50,LOX IMVI melanoma,> 100 µM
same,TGI,LOX IMVI melanoma,> 100 µM
same,GI50,CCRF-CEM leukemia,> 100 µM
same,TGI,CCRF-CEM leukemia,> 100 µM
same,GI50,PC-3 prostate,> 100 µM
same,TGI,PC-3 prostate,> 100 µM
same,GI50,SNB-75 CNS,> 100 µM
same,TGI,SNB-75 CNS,> 100 µM
same,GI50,IGROV1 ovarian,> 100 µM
same,TGI,IGROV1 ovarian,> 100 µM
same,GI50,MOLT-4 leukemia,> 100 µM
same,TGI,MOLT-4 leukemia,> 100 µM
same,GI50,HL-60(TB) leukemia,> 100 µM
same,TGI,HL-60(TB) leukemia,> 100 µM
